These are literature values, as cited in patent CN115177586A, “一种卡泊三醇组合物” (Jiangsu Zhiyuan Pharmaceutical Co ltd, priority 2022, dated 2022).

For the data set the following is noted: not told.

In the case of `C=C1/C(=C\C=C2/CCC[C@]3(C)[C@@H]([C@H](C)/C=C/[C@@H](O)C4CC4)CC[C@@H]23)C[C@@H](O)C[C@@H]1O` [卡泊三醇], the permeability result is “渗透性极差”.
